Here are results for one compound from ChEMBL document CHEMBL5360657, “Discovery of the TLR7/8 Antagonist MHV370 for Treatment of Systemic Autoimmune Diseases” (ACS Med Chem Lett, 2023).

≈ marks a conversion by molar mass, not a printed value. Some results are limits rather than exact numbers.

Data set [1] has as its target Voltage-gated inwardly rectifying potassium channel KCNH2 (Homo sapiens, UniProt Q12809). Nature of the data set: Displacement of [3H]-dofetilite from human ERG (unknown origin). It counts as toxicity.
A short description of data set [2]: Solubility of the compound. Type of data set: physicochemical.
A further data set concerns the target T1, Toll-like receptor 7 (Mus musculus, UniProt P58681).
T1 sequence (P58681 whole entry): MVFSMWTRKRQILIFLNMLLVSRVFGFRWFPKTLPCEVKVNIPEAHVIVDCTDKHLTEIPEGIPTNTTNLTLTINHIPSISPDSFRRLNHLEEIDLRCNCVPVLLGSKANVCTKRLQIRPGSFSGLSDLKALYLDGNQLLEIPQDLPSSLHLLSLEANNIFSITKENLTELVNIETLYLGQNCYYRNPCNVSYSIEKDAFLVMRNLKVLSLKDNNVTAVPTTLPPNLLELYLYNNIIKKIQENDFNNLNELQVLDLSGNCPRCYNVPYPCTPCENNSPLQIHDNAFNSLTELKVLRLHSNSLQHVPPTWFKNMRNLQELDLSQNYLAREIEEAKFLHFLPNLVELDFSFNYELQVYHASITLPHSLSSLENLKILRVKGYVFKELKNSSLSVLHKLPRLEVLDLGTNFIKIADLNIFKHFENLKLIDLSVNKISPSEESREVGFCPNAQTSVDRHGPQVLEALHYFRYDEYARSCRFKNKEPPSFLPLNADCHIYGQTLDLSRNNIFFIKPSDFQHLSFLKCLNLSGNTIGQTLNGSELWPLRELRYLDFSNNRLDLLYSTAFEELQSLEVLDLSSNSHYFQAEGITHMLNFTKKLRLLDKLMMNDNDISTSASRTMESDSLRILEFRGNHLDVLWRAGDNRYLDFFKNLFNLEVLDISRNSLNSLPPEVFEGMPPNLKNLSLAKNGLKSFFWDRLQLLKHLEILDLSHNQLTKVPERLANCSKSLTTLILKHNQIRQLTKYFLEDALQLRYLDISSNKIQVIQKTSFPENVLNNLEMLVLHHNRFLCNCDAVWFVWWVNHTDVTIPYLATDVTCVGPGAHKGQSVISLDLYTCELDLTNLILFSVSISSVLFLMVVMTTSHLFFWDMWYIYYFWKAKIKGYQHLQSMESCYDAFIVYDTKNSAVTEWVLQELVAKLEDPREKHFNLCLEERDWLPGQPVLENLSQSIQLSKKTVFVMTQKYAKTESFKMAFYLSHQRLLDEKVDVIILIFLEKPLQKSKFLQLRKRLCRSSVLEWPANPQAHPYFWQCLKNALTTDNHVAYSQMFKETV
Description: Antagonist activity at TLR7 in mouse Splenocyte assessed as reduction in IFN-alpha level measured after 20 hrs by Spectramax M5 method. Type of data set: cell-based.

Chain of Voltage-gated inwardly rectifying potassium channel KCNH2 (Q12809 whole entry): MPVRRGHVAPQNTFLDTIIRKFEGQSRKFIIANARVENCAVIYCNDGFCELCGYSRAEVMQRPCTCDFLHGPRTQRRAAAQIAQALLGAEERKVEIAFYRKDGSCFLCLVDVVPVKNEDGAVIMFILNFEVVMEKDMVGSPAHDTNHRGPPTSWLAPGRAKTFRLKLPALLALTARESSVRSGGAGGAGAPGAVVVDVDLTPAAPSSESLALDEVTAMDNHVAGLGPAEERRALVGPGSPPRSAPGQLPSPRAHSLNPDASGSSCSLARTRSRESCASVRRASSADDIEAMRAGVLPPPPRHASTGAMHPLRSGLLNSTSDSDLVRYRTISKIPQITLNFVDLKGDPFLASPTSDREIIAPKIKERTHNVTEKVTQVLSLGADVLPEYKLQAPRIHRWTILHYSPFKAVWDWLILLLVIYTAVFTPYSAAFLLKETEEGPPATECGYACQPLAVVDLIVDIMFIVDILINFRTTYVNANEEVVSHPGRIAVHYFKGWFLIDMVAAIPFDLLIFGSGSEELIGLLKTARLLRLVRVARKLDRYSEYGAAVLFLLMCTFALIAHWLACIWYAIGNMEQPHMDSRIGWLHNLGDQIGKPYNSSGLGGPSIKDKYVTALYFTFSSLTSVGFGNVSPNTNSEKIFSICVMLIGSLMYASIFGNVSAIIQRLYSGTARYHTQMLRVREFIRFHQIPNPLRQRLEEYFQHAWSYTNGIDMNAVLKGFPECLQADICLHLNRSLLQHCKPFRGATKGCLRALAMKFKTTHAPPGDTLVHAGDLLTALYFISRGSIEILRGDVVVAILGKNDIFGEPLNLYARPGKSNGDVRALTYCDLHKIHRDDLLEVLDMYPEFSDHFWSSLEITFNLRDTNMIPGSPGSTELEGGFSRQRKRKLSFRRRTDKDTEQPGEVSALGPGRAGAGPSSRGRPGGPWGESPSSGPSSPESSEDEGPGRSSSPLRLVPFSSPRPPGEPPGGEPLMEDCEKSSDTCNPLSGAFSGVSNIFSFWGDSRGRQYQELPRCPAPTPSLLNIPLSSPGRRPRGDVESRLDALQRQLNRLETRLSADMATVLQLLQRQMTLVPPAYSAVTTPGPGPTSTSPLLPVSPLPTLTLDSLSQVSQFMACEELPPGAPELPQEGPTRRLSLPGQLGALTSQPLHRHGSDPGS

Turning to `Cc1cc(-c2cnc(OCC34CCC(N)(CC3)CC4)c(C)c2)c2cnn(C)c2n1`, the half-maximal inhibitory concentration (IC50) in data set [1] is 3.4 µM; at Toll-like receptor 7 it was less than 0.005 µM. The compound also came in with a solubility in data set [2] of 110 µM (≈ 43.1 µg/mL).
